Reference: US20220268782A1, “METHODS FOR PREDICTING AND TREATING CARDIAC DYSFUNCTION” (INSERM (INSTITUT NATIONAL DE LA SANTÉ EAT DE LA RECHERCHE …, priority 2019, published 2022)

Tests used:
11 month-old WT mice = assay: In vivo intraperitoneal BH4 treatment of 11-month-old WT mice: cardiac phenotyping, plasma and hepatic PA
Description: PA in a dose of 200 mg/kg twice a day or vehicle (1×PBS) was subcutaneously administered to 11 month-old WT mice (Janvier Labs, France) in vivo for a month. BH4 in a dose of 10 mg/kg/die 2×/die or vehicle (1×PBS with 10 mM sodium ascorbate and citric acid to pH 4.5) was intraperitoneally administered to 11 month-old WT mice in vivo over six weeks. General state of the mice (body weight & wellbeing) was closely monitored.
(§1) Data acquisition for a single cohort was performed by a single operator (JT or ER). Images were acquired from a parasternal position at the level of the papillary muscles using a 13-MHz linear-array transducer with a digital ultrasound system (Vivid 7, GE Medical System, Horton, Norway). Left ventricular dimensions and ejection fraction, anterior and posterior wall thicknesses were serially obtained from M-mode acquisition. Relative LV wall thickness (RWT) was defined as the sum of septal and posterior wall thickness over LV end-diastolic diameter, and LV mass was determined using the uncorrected cube assumption formula (LV mass=(AWTd+LVEDD+PWTd)^3−(LVEDD)^3). Peak systolic values of radial strain rate of the anterior and posterior wall were obtained using Tissue Doppler Imaging (TDI) as previously described.^2 TDI loops were acquired from parasternal view with a careful alignment with the radial component of the deformation' at a mean frame rate of 514 fps and a depth of 1 cm. The Nyquist velocity limit was set at 12 cm/s. Radial strain rate analysis was performed offline using the EchoPac Software (GE Medical Systems) blindly by a single operator (GD). Peak systolic of radial strain rate was computed from a region of interest positioned in the mid anterior wall and was measured over an axial distance of 0.6 mm. The temporal smoothing filters were turned off for all measurements. Because of the inevitable respiratory variability, we averaged peak systolic of radial strain rate on 8 consecutive cardiac cycles.
(§2) In vivo haemodynamic measurements were performed just before mice of indicated ages were sacrificed.' Haemodynamic evaluation was performed in mice placed on a homeothermic operating table in supine position under 1.5% isoflurane anesthesia with spontaneous breathing. A 1.4-Fr microcatheter (Millar Instruments, Houston, USA) was calibrated manually before each experiment, inserted via the right carotid artery into the aorta and subsequently advanced to the left ventricle. Data were collected after at least 10 min of baseline, using the lowest isoflurane concentration tolerated to ensure minimal cardiodepression during measurement of peak rates of isovolumetric pressure development (dP/dtmax) and pressure decay (dP/dtmin). The microcatheter was then withdrawn to the aorta for measurement of systolic and diastolic pressure. Data were analyzed using the IOX software (EMKA, France).
(§3) All mice were weighed, euthanized by cervical dislocation, followed by rapid excision of the organs of interest. The heart was cannulated through the aorta for perfusion with ice-cold 1×PBS, then blotted and weighed. The heart was cut in half perpendicular to its axis: the apical two-third was snap-frozen in liquid nitrogen, whilst the basic one-third was recannulated through the aorta, perfused with 10% formalin for histology. Hearts were kept in formalin at 4° C. for at least 24-48 hours before embedding. Snap-frozen tissues were kept at −80° C., until they were powdered using a mortar and pestle cooled with liquid nitrogen and collected as aliquots. Livers and kidneys were processed in a similar manner.
Formalin-fixed organs were embedded in paraffin. Cross-sections were cut into 7 μm thickness using a rotary microtome (Leica). To assess cardiac fibrosis, Sirius red staining was performed, followed by dehydration and mounting with Eukitt quick-hardening mounting medium (Sigma). […]

WT mice = assay: In vivo subcutaneous PA treatment of WT mice: cardiac phenotyping
Description: […] […] General state of the mice (body weight & wellbeing) was closely monitored.
as §1, §2, §3
Formalin-fixed organs were embedded in paraffin. Cross-sections were cut into 7 μm thickness using a rotary microtome (Leica). To assess cardiac fibrosis, Sirius red staining was performed, followed by dehydration and mounting with Eukitt quick-hardening mounting medium (Sigma). To visualise cardiomyocyte hypertrophy, sections were incubated in 2 μg/mL Texas red-conjugated wheat germ agglutinin (WGA; Invitrogen) in 1×PBS at room temperature for 45 minutes. Slides were then mounted with fluorescent mounting media (Abcam). Images were acquired using a Zeiss fluorescent microscope. Whole-mount preparations were made of hearts and livers of 2- and 15-month-old p21-mCherry reporter mice. […]

[1] = older group (11 month-old at start), PA 200 mg/kg twice a day, one month

SMILES: CC(O)C(O)C1CNc2nc(N)[nH]c(=O)c2N1 (centres unmarked) [BH4, 2-amino-6-(1,2-dihydroxypropyl)-5,6,7,8-tetrahydro-3H-pteridin-4-one]
- plasma PA (11 month-old WT mice; 11-month-old WT mice, BH4 10 mg/kg i.p. twice a day over 6 weeks, FIG. 4a): reduce plasma PA to young levels
- systemic arterial pressures (11 month-old WT mice; 11-month-old WT mice, BH4 10 mg/kg i.p. twice a day over 6 weeks, FIG. 4f): without lowering
- interstitial fibrosis (Sirius red, vimentin) (11 month-old WT mice; 11-month-old WT mice, BH4 10 mg/kg i.p. twice a day over 6 weeks, FIG. 4g-h): normalised
- senescent myocardial expression of p21, Pah, Gch1 & 2-SC (11 month-old WT mice; 11-month-old WT mice, BH4 10 mg/kg i.p. twice a day over 6 weeks, FIG. 4j): suppressing
- HW/TL (heart weight to tibia length) (11 month-old WT mice; 11-month-old WT mice, BH4 10 mg/kg i.p. twice a day over 6 weeks, to young values, FIG. 4b): ameliorated
- contractility (systolic strain rate, dP/dtmax) (11 month-old WT mice; 11-month-old WT mice, BH4 10 mg/kg i.p. twice a day over 6 weeks, to young values, FIG. 4c-d): ameliorated
- relaxation (dP/dtmin) (11 month-old WT mice; 11-month-old WT mice, BH4 10 mg/kg i.p. twice a day over 6 weeks, to young values, FIG. 4e): ameliorated
- Pah in liver (immunofluorescence) (11 month-old WT mice; 12.5-month-old WT mice, BH4 vs. vehicle, FIG. 4s): re-expressed
- hepatic PA content (11 month-old WT mice; 12.5-month-old WT mice, BH4 vs. vehicle, FIG. 4t): reduced
- course of drug treatment (body weight & wellbeing monitored) (11 month-old WT mice; BH4 10 mg/kg twice a day intraperitoneally over six weeks): completed as scheduled without incidents
- hepatic Pah activity (11 month-old WT mice; BH4-treated WT mice, data not shown): improved

SMILES: N[C@@H](Cc1ccccc1)C(=O)O [PA, (S)-2-Amino-3-phenylpropanoic acid]
- course of drug treatment (body weight & wellbeing monitored) (WT mice; PA 200 mg/kg twice a day subcutaneously for a month): completed as scheduled without incidents
- LV ejection fraction (WT mice; PA 200 mg/kg twice a day, one month, FIG. 3h): unaltered
- Plasma PA levels (WT mice; WT mice 5 vs. 11 month-old at start, PA 200 mg/kg twice a day over one month): increased in both age-groups, but were considerably higher in older animals
- tolerability / weight loss (WT mice; WT mice, PA 200 mg/kg twice a day over one month, data not shown): tolerated PA treatment well without significant weight loss
- hepatic PA levels (WT mice; livers of PA-treated 6-month-old WT mice vs. 12-month-old WT mice, FIG. 4m): comparable
- cardiac hypertrophy (HW/TL) (WT mice; [1]): no change
- cardiomyocyte size (cross-sectional area) (WT mice; [1]): no change
- myocardial interstitial fibrosis (Sirius red) (WT mice; [1]): no change
- cardiac hypertrophy (HW/TL) (WT mice; young animals (5 month-old at start), PA 200 mg/kg twice a day, one month, FIG. 3c): increase
- cardiomyocyte size (cross-sectional area) (WT mice; young animals, PA 200 mg/kg twice a day, one month, FIG. 3e): increase
- myocardial interstitial fibrosis (Sirius red) (WT mice; young animals, PA 200 mg/kg twice a day, one month, FIG. 3f): increase
- systolic strain rate (WT mice; young group, PA 200 mg/kg twice a day, one month, FIG. 3i): reduced
- dP/dtmax (WT mice; young group, PA 200 mg/kg twice a day, one month, FIG. 3j): reduced
- dP/dtmin (WT mice; young group, PA 200 mg/kg twice a day, one month, FIG. 3k): reduced
- myocardial senescence: p21, Pah, Gch1, 2-SC and 4-HNE (WT mice; young hearts, PA 200 mg/kg twice a day, one month, FIG. 3l): upregulation
